Type in all cases: cell-based
For test [1], the system named is E. coli, C. rodentium, S. nepalensis, E. fecalis. The experiment in a line: Anti-bacterial activity assay, over the four bacterial species. The note with it: 1U = dose needed to kill 50% of the bacteria (IC50). The method, then: (§1) Antimicrobial essays for the synthetic proteins were performed against Escherichia coli, Staphylococcus nepalensis, Enterococcus fecalis and Citrobacter rodentium. The first three species are common in small intestine in mice (where Paneth cells are relevant), while C. rodentium is a common pathogen in mice. To obtain cultures of the first three species, C57BL/6J mice were euthanized, ileum content harvested and diluted in sterile PBS and plated out on standard LB plates, overnight. Colonies were picked and species identified using Maldi-Toff [as previously described ([19])]. The relevant pure colonies of these three species were then grown on plates, identified once again, and grown in liquid LB and frozen at -80°C. The C. rodentium culture was strain ICC 169 and was obtained from ATCC.
Bacteria were grown in LB broth at 37°C in an incubation shaker (100rpm) until and OD between 0.8-1. For each peptide, a dilution set (800 µl/peptide) derived from the stock solution was prepared in such manner to obtain a final volume of 1 ml with peptide concentrations of 20 µg/ml, 10 µg/ml, 4 µg/ml and 2 µg/ml. Bacteria grown in LB broth where diluted to OD 0.2. For each bacterium, 200 µl of the OD 0.2 solution was added to each of the peptide dilutions and incubated at 37°C for four hours at 55 rpm. […] The plates were incubated at 37°C overnight after which colonies per plate were counted and tabulated. […]

The subject of test [2] is Staphylococcus nepalensis. The experiment in a line: Anti-bacterial activity assay (colony counts after peptide titration). The note with it: 1U = dose needed to kill 50% of the bacteria (IC50); peptide 20, 10, 4, 2 µg/ml; 4 h at 37°C; colonies counted on LB agar; logistic 4 parameter model (drda); isolate from mouse ileum; means of two independent experiments. The method, then: as §1
(§2) Bacteria were grown in LB broth at 37°C in an incubation shaker (100rpm) until and OD between 0.8-1. For each peptide, a dilution set (800 µl/peptide) derived from the stock solution was prepared in such manner to obtain a final volume of 1 ml with peptide concentrations of 20 µg/ml, 10 µg/ml, 4 µg/ml and 2 µg/ml. Bacteria grown in LB broth where diluted to OD 0.2. For each bacterium, 200 µl of the OD 0.2 solution was added to each of the peptide dilutions and incubated at 37°C for four hours at 55 rpm. After incubation 100 µl of the incubated mixture was plated out on LB agar plates at two concentrations: undiluted and 1:10 diluted. The plates were incubated at 37°C overnight after which colonies per plate were counted and tabulated. The highest plated out concentration that still had individually distinguishable colonies was used.
(§3) The R package “drda” ([20]) was used to perform a dose-response analysis using the logistic 4 parameter model. The concentration that inhibits growth by 50%, IC50, was obtained from the models for each combination of bacterium and peptide and converted into per peptide specific activity.

Test [3] has as its system Citrobacter rodentium strain ICC 169. The description is as above. The note with it: 1U = dose needed to kill 50% of the bacteria (IC50), peptide 20, 10, 4, 2 µg/ml, 4 h at 37°C, colonies counted on LB agar, logistic 4 parameter model (drda), means of two independent experiments. The method, then: as §1, §2, §3
For test [4], the system named is Enterococcus fecalis. Described as above. The note with it: 1U = dose needed to kill 50% of the bacteria (IC50); peptide 20, 10, 4, 2 µg/ml; 4 h at 37°C; colonies counted on LB agar; logistic 4 parameter model (drda); isolate from mouse ileum; means of two independent experiments. The method, then:
as §1, §2, §3

Test [5] deals with Escherichia coli. The description is as above. The following applies: 1U = dose needed to kill 50% of the bacteria (IC50); peptide 20, 10, 4, 2 µg/ml; 4 h at 37°C; colonies counted on LB agar; logistic 4 parameter model (drda); isolate from mouse ileum; means of two independent experiments. On the procedure: as §1, §2, §3

No end group written: not given here.

In the case of “Defa31: custom-synthesized mature peptide of parental mouse α-defensin Defa31 (PRCPPCPRCSWCPRCPTCPRCNCNPK; ends and bridges not checked; cysteine pairing not given here; UniProt P50715 66-91, looked up)”, the “Specific activity of cell killing, Mean” value in test [1] is 334 U/mg. Moreover, the “Specific activity of cell killing, S. nepalensis” value in test [2] was found to be 437 U/mg. In addition, the “Specific activity of cell killing, C. rodentium” value in test [3] was determined as 314 U/mg. The “Specific activity of cell killing, E. fecalis” value in test [4] was 189 U/mg. Besides, in test [5], the “Specific activity of cell killing, E. coli” value came out at 397 U/mg.
With “Defa24: custom-synthesized mature peptide of parental mouse α-defensin Defa24 (LRDLVCYCRARGCKGRERMNGTCSKGHLLYMLCC; ends and bridges not checked; cysteine pairing not given here; UniProt Q5G865 59-92, looked up)”, the “Specific activity of cell killing, Mean” value in test [1] came to 58 U/mg. Moreover, the “Specific activity of cell killing, S. nepalensis” value in test [2] came out at 8 U/mg. Also, in test [3], the “Specific activity of cell killing, C. rodentium” value came to 77 U/mg. In addition, the “Specific activity of cell killing, E. fecalis” value in test [4] is on record as 23 U/mg. Further, in test [5], the “Specific activity of cell killing, E. coli” value is given as 122 U/mg.

Values taken from publication PMC11840258, “Detection of chimeric alpha-defensin transcripts and peptides in mouse Paneth cells” (Frontiers in Immunology, 2025).
